The values that follow come from patent US9382230B2, “Methods and compositions for modulating Ire1, SRC and ABL activity” (The Regents of the University of California, priority 2008, dated 2016).

In one assay the target is human Ire1 (Homo sapiens, UniProt O75460). The assay is described as follows: In vitro cleavage of 32P-stem-loop RNA by human Ire1. Particulars: AD series of Ire1 modulators. It counts as biochemical. Here is the method:
(§1) RNA cleavage reactions were conducted at 30° C. in buffer containing 20 mM HEPES (pH 7.5), 70 mM NaCl, 2 mM ADP (pH 7.0), 2 mM Mg(OAc)2, 5 mM DTT, 5% glycerol, less than 1 nM ^32p-labeled RNA substrate, and 3 nM-20 μM Ire1. Reaction solutions and buffers were designed using Biochem Lab Solutions 3.5. Reactions were prepared such that 1 μl of RNA was added to 9 μl of pre-warmed reaction mixture containing all components except RNA. Typically, 3-10 minute time courses were collected starting from 5 seconds for the first time point. At time intervals, 1 μl of solution was withdrawn from each reaction and mixed wish 6 μl stop solution containing 10 M urea, 0.1% SDS, 0.1 mM EDTA, 0.05% xylene cyanol, and 0.05% bromophenol blue. The samples were separated by a denaturing 10% PAGE and exposed on a phosphor storage screen. The screens were scanned on a Storm or a Typhoon instrument and quantified using ImageQuant 5.0 or GelQuant.NET 1.4 programs. The data were plotted and fit in SigmaPlot 6.0.
In vitro cleavage of ^32P-stem-loop RNA by human Ire1, with AD series of Ire1 modulators gave the following results: […]

A further assay concerns the target WT Src (Homo sapiens, UniProt P12931). As to the kind of experiment: c-Src kinase cross-reactivity assay. The assay is classed as biochemical. The procedure:
(§2) Assays for cross-reactivity with Src and Abl were also conducted. Purified c-Src or Abl were diluted in kinase reaction buffer (10 mM HEPES (pH 7.2), 10 mM MgCl2, 0.2 mM DTT) to a concentration of approximately 10 nM and pre-incubated with 1 mg/mL BSA, 2.5% (v/v) DMSO, 133 μM peptide (sequence EAIYAAPFKKK for Abl and EIYGEFKKK for c-Src), and varying concentrations of inhibitor. Kinase reactions were initiated by the addition of […] cold ATP supplemented with 5 mCi γ^32P ATP and allowed to proceed at room temperature (RT). At 10 minutes […] of the reactions were spotted onto phosphocellulose sheets (P81, Whatman) and subsequently soaked in was buffer (1.0% (v/v) phosphoric acid). The sheets were washed five times in buffer, dried, and transferred radioactivity was measured by phosphorimaging using a Typhoon™ scanner (Molecular Dynamics). Radioactive counts were quantified using ImageQuant software, and titration data were fit to a sigmoidal dose response to derive IC50 values using the Prism® software package. Dose responses were based on a 12 point inhibitor titration, using ⅓ dilutions starting from […].

For the next assay, the target named is WT Abl (Homo sapiens, UniProt P00519). As to the kind of experiment: Abl kinase cross-reactivity assay. It counts as biochemical. The procedure:
as §2

Another assay concerns Ire1. As to the kind of experiment: Summary statement of Ire1 activation or inhibition (assay not specified).
A further assay concerns the target T1, Ire1KR32 (Saccharomyces cerevisiae, UniProt P32361).
T1 construct: Overview of the Ire1 constructs; GST (N); made in house; host or cells: E. coli BL21 CodonPlus (RIPL)
T1 sequence (P32361 with tags, fused parts or gaps): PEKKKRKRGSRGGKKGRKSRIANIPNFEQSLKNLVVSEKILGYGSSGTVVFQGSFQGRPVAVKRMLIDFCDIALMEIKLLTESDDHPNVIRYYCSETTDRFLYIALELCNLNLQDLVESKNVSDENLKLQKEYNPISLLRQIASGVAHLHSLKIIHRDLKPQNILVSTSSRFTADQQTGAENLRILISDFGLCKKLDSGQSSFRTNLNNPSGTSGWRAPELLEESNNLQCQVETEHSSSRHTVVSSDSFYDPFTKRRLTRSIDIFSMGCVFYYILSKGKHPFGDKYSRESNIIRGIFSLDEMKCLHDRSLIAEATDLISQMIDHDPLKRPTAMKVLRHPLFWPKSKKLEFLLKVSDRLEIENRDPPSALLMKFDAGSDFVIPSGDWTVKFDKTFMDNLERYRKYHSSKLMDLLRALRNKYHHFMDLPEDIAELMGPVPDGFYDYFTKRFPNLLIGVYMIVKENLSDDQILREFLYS
As to the kind of experiment: RNase cleavage assay with Ire1 cytosolic constructs (Ire1KR32), co-factors and kinase inhibitors. The assay is classed as biochemical. Particulars: for effect of EDTA (chelation of magnesium) on RNase activity of Ire1KR32 stimulated by the substance: FIG. 3F; for activation of the RNase of Ire1KR32: FIG. 3A. The procedure: as §1
Variants of the cytosolic portion of Ire1 that contain the kinase and the RNase domains (Ire1KR) and Ire1KR extended by 24 (Ire1KR24) or 32 (Ire1KR32) amino acids towards the N-terminus (FIG. 1A, FIG. 1C, FIG. 7) were prepared. These additional amino acid extensions are part of a ˜100 amino acid-long linker domain that tethers the kinase/RNase domains to the transmembrane domain. All three constructs cleaved site-specifically 5′-32p-labeled stem-loop oligoribonucleotides 14 derived from the XBP1 mRNA (FIG. 1B, FIG. 8). […] No ADP.Mg co-factor was required for the cooperative activation of the RNase.
Ire1KR32 was co-crystallized with inhibitors that were designed to target CDK2 and EGFR kinases. Certain kinase inhibitors fully activated the RNase function of Ire1 (FIG. 3A). This is the first example of wild-type Ire1 activation by synthetic compounds.
Crystals obtained with the inhibitor APY29 allowed the structure determination of the Ire1KR32-APY29 complex at 3.9 Å resolution. A well-resolved density for the inhibitor molecule was found in the ATP binding pocket of the Ire1 kinase domain (FIG. 3B). APY29 forms an extensive hydrogen-bonding network with the protein backbone formed by E746, L747, and C748 (FIG. 3C). Hydrogen bonds are likely to also form with two side chains at the active site, N751, and D828. […] Manual fitting of sunitinib guided by know structures of kinase.inhibitor complexes (e.g., PDB IDs 2G9X and 2F4J) predicts that the compound fills the nucleobase site, but not the sugar and the phosphate sub-sites. […] AIN54 could not be readily fit to the ATP pocket due to steric clashes arising partly because of the unusual position of beta strand β1 that covers the nucleotide-binding pocket of the Ire1 kinase.
This structural difference provides an excellent tool to test the role of magnesium in the RNase activity of Ire1. Accordingly, the effect of EDTA on the RNase activity of Ire1KR32 was examined.

The target in the next assay is T2, yIre1 (Saccharomyces cerevisiae, UniProt P32361).
T2 construct: GST (N); made in house; host or cells: E. coli BL21 CodonPlus (RIPL)
T2 sequence (P32361 with tags, fused parts or gaps limits assumed): T1 sequence (P32361 with tags, fused parts or gaps)
As to the kind of experiment: RNA cleavage-based yIre1 activation assay. It counts as biochemical, yeast. More on the design: unit not given here. The following applies: 3 μM yIre1, stem loop RNA, 15 μM effector. The procedure:
The RNase Cleavage Assay.
as §1
RNA cleavage can be used to assess yIre1 activation as shown by FIG. 20 and the table below (3 μM yIre1, stem loop RNA, 15 μM effector): […]

Assay [1] deals with Xbp-1 mRNA splicing (UPR activation through Ire1) in HEK293 cells. The assay is described as follows: XBP-1 mRNA splicing by RT-PCR in HEK293 cells (UPR). It counts as cell-based, mammalian. Particulars: for % splicing mRNA XBP-I Average: Hek293 cells treated for 4 hrs, RT-PCR. Here is the method: The effect of tunicamycin, SU11248, DJM2005, APY24, and APY29 on Ire1 activity was tested in mammalian cells using HEK293 cells as a model system. Cells were treated according to the methods described in Lin J H et al., Science 318:944 (2007). After treatment with the corresponding agents for the indicated time, Xbp-1 mRNA splicing was determined by RT-PCR. Unspliced (u) and spliced (s) Xbp1-mRNA products are indicated and serve as a measure of UPR activation through Ire1.
Exemplary compounds were assayed for their effect on UPR. Results are set forth in FIGS. 18-19 and in the table below.

Assay [2] deals with XBP1-GFP reporter in Hek293-FT cells. As to the kind of experiment: FACS on Hek293-FT cells transfected with XBP1-GFP reporter. The assay is classed as cell-based. Particulars: treated for 24 hrs. Here is the method:
Exemplary compounds were assayed and the results are set froth in the table below.

Chain of human Ire1 (O75460 19-977): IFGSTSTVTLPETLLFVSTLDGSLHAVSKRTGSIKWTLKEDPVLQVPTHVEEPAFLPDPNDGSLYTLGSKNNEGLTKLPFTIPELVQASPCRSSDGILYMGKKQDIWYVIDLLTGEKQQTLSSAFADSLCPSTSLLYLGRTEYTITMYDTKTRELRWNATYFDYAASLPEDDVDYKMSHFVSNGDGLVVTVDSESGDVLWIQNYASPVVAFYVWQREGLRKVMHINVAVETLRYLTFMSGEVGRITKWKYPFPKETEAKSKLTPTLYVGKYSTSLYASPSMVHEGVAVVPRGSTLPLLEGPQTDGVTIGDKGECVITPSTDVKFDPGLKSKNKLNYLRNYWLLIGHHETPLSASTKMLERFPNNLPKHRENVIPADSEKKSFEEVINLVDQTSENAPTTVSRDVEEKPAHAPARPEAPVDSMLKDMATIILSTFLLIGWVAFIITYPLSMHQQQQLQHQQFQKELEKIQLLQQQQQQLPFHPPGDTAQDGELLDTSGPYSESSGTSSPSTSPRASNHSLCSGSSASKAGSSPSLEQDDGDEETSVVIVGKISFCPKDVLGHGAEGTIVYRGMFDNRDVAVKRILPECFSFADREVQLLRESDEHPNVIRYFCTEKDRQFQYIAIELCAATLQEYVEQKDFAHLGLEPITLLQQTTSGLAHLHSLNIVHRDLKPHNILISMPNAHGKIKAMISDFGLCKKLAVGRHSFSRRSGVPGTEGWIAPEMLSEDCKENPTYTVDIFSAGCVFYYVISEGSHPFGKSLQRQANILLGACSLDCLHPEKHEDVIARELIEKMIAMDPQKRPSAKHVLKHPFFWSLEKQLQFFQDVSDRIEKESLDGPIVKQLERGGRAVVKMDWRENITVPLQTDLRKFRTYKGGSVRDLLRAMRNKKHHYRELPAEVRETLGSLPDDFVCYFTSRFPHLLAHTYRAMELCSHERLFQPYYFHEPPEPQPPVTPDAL
Chain of WT Src (P12931 whole entry): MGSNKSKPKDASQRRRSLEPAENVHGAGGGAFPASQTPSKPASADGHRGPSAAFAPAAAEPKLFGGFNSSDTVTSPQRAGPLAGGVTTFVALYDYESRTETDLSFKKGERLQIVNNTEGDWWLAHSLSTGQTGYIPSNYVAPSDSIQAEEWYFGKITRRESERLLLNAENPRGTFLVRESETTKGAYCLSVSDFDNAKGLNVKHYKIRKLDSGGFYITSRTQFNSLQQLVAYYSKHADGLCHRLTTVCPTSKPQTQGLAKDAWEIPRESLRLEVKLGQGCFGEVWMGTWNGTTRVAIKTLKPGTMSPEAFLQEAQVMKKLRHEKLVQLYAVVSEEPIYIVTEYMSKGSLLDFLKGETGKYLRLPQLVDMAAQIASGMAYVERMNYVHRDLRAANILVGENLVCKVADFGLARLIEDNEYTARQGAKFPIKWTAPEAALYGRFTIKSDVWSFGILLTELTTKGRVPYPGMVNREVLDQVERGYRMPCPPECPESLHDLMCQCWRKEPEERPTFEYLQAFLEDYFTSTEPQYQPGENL
Chain of WT Abl (P00519 whole entry): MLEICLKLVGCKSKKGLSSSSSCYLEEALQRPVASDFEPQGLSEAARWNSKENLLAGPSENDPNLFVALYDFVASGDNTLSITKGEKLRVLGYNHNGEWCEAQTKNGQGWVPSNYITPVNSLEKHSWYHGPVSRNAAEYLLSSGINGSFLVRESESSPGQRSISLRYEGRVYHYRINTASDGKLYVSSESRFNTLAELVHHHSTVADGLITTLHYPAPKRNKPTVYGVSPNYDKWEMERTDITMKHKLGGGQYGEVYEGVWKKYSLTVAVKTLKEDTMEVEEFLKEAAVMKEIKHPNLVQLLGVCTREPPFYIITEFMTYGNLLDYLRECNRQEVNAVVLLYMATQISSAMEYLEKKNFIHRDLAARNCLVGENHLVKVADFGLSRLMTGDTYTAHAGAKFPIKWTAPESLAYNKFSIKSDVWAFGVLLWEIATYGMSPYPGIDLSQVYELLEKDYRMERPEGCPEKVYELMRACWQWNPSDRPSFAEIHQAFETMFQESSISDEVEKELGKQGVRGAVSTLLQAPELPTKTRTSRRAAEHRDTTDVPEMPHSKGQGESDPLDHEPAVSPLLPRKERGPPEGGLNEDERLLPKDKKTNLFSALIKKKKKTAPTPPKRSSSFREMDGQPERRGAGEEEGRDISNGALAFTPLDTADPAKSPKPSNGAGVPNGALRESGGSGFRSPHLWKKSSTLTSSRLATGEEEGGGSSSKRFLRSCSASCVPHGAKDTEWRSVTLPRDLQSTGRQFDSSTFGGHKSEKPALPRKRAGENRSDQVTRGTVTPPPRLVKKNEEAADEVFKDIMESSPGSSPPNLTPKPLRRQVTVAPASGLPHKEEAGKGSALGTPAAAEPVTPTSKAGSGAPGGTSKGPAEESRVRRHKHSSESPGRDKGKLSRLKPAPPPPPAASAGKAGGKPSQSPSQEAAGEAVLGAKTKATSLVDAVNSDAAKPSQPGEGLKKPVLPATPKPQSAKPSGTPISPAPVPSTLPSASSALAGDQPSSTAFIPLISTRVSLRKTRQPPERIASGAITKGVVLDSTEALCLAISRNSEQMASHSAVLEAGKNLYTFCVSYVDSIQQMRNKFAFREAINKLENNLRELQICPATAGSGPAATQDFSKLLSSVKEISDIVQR

The term IC50 denotes the midpoint of a concentration-inhibition curve. `O=C(Nc1ccc(Nc2nccc(Nc3cc(C4CC4)n[nH]3)n2)cc1)Nc1cccc(C(F)(F)F)c1` [AD75, 1-(4-(4-(3-cyclopropyl-1H-pyrazol-5-ylamino)pyrimidin-2-ylamino)phenyl)-3-(3-(trifluoromethyl)phenyl)urea]: the “In vitro cleavage of 32P-stem-loop RNA by human Ire1” value (“In vitro cleavage” for short) on human Ire1 is on record as 0.2317. For the same molecule, the IC50 turned out to be 170 nM on WT Src and 2430 nM against WT Abl. Also, in the assay with Ire1, the “activation of Ire1” value is “significant activation”.

For `O=C(Nc1ccc(Nc2nccc(Nc3cc(C4CC4)n[nH]3)n2)cc1)c1cccc(C(F)(F)F)c1` [AD74, N-(4-(4-(3-cyclopropyl-1H-pyrazol-5-ylamino)pyrimidin-2-ylamino)phenyl)-3-(trifluoromethyl)benzamide], the “In vitro cleavage” value at human Ire1 came to 0.0877. For the same molecule, the results for the IC50 on WT Src and against WT Abl were 357 nM and 2150 nM, respectively. Also, the “activation of Ire1” value in the assay with Ire1 is “significant activation”.

For the molecule `O=C(Nc1cccc(Nc2nccc(Nc3cc(C4CC4)n[nH]3)n2)c1)Nc1cccc(C(F)(F)F)c1` [AD77, 1-(3-(4-(3-cyclopropyl-1H-pyrazol-5-ylamino)pyrimidin-2-ylamino)phenyl)-3-(3-(trifluoromethyl)phenyl)urea], the “In vitro cleavage” value at human Ire1 was 0.0239. Moreover, the values for the IC50 against WT Src and on WT Abl were 442 nM and 36800 nM, respectively. Moreover, the “activation of Ire1” value with Ire1 is “significant activation”.

For the molecule `Nc1ncnc2c1ncn2[C@@H]1O[C@H](COP(=O)(O)OP(=O)(O)O)[C@@H](O)[C@H]1O` [ADP, reference compound], the “effect of EDTA (chelation of magnesium) on RNase activity of Ire1KR32 stimulated by the substance” value on Ire1KR32 is reported as “decreased by greater than an order of magnitude”. Also, on Ire1KR32 (HP21 substrate, Ire1KR, Ire1KR24, Ire1KR32 (FIG. 1D)), the “increase of specific RNase activity by co-factor” value is “two orders of magnitude”.

As to `c1cc(Nc2cc(C3CC3)[nH]n2)nc(Nc2ccc3[nH]cnc3c2)n1` [APY29], at yIre1, the “RNA cleavage (yIre1 activation)” value came out at 0.07509. Moreover, the “% splicing mRNA XBP-I Average” value in assay [1] (Tm 0.3 ug/ml + compound 2 μM) turned out to be 40%; in assay [1] (compound 2 μM), 10%; in assay [1] (compound 10 μM) it was 14%. Besides, the results for the “% fold induction to Control” value in assay [2] (Tm 0.3 ug/ml + compound 2 uM) and in assay [2] (compound 2 uM) were 65% and 11%, respectively. Also, the Mean fluorescence in assay [2] (Tm 0.3 ug/ml + compound 2 uM) is given as 4016; in assay [2] (compound 2 uM), 2697. Further, the “activation of the RNase of Ire1KR32” value on Ire1KR32 was “Potent activators”. For the same molecule, the “effect of EDTA (chelation of magnesium) on RNase activity of Ire1KR32 stimulated by the substance” value at Ire1KR32 is recorded as “remained unchanged”. The “activation of Ire1” value in the assay with Ire1 is given as “significant activation”.

For `N#CCc1ccc(Nc2nccc(Nc3cc(C4CC4)[nH]n3)n2)cc1` [APY24], at yIre1, the “RNA cleavage (yIre1 activation)” value worked out at 0.04667. Also, the “% splicing mRNA XBP-I Average” value in assay [1] (Tm 0.3 ug/ml + compound 2 μM) is 28%; in assay [1] (compound 2 μM), 30%; in assay [1] (compound 10 μM), 44%. Further, in assay [1] (summary statement), the “in vivo activation of Ire1” value is listed as “significant in vivo activation”. For the same molecule, the “% fold induction to Control” value in assay [2] (Tm 0.3 ug/ml + compound 2 uM) is −2%; in assay [2] (compound 2 uM), 6%. The Mean fluorescence in assay [2] (Tm 0.3 ug/ml + compound 2 uM) is reported as 2387; in assay [2] (compound 2 uM), 2569. Also, the “activation of the RNase of Ire1KR32” value on Ire1KR32 is listed as “Potent activators”. Moreover, the “activation of Ire1” value in the assay with Ire1 was “significant activation”.

Turning to `O=C(Nc1cccc(Nc2nccc(Nc3cc(C4CC4)n[nH]3)n2)c1)c1cccc(C(F)(F)F)c1` [AD76, N-(3-(4-(3-cyclopropyl-1H-pyrazol-5-ylamino)pyrimidin-2-ylamino)phenyl)-3-(trifluoromethyl)benzamide], on human Ire1, the “In vitro cleavage” value turned out to be 0.0139. Also, the IC50 against WT Src was determined as 138 nM; on WT Abl, 4960 nM. Moreover, the “activation of Ire1” value in the assay with Ire1 is listed as “significant activation”.
